Measured values taken from patent EP0210351A2, “Use of porphyrin derivatives in the detection and treatment of tumours” (Nippon Petrochemicals Co., Ltd., priority 1985, dated 1987).

How the values were obtained:
[1] = system: SmT-F transplanted tumors; assay: Photodynamic therapy of transplanted mouse tumors, necrotic/affected area by Evans Blue dye (Example 8); type: in vivo, DBA/2 Ha Ros-d+Ha mice; details: 100 mg/kg iv, 24 hrs between drug dose and light, 200 mW/cm^2, 300 J/cm^2, wavelength nm: 2-acetyl 680, 2-formyl 690, chlorin e6 665, deutero 655, meso 652, necrotic/affected tumor area
Protocol: The treatment and evaluation procedure is as follows: • DBA/2 Ha Ros-d+Ha mice with SmT-F transplanted tumors either in the exterior part of the hind leg or the side of the mouse were injected intravenously via the external jugular or intraperitoneally with the photosensitizing drug. At the specified time after injection, the area over the tumor was shaved and the light treatment begun.
Light from a Cooper Aurora argon pumped tunable dye laser was administered via a micro lens system (developed by Dr. Daniel Doiron, D,R.D. Consulting, Santa Barbara, California) coupled through a quartz fiber to the laser. The optical properties of the lens are such that the light exits the lens in a circular pattern with homogenous intensity throughout the lighted area, The diameter of the lighted area is a function of the distance from the lens,
The light intensity was measured with a Yellow Springs Instrument Model 65 A Radiometer at the point of treatment. A 1.5 cm diameter circle of the animal's skin, centered as closely as possible over the tumor, was irradiated in all the experiments. The intensity, wavelength, and dosage of light is included in the data for individual groups of animals. Wavelengths are adjusted, using a Hartridge reversion spectroscope to within 1 nm of the stated value.
Twenty four hours after light treatment, each mouse received 5 mg of Evans Blue Dye intravenously (1). After an additional two hours, the mice were sacrificed and the tumors were sectioned vertically through the center of the light treated area. Unaffected tumor was stained blue as was unaffected normal tissue. Necrotic or affected areas were white or red in appearance. Measurements on both the whole tumors and affected areas of the tumors were made vertically and horizontally with calipers to the nearest one half millimeter.

[2] = system: Morris Hepatoma 7777 tumors; assay: Photodynamic therapy, chlorin e6 compared with Photofrin II, tumor necrosis by Evans Blue dye (Example 7); type: in vivo, Buffalo rats; details: 19 tumors treated; 20mg/kg intravenously; light 24 hours later; 665 nanometer; 100 mw/cm^2; 20 joules/cm^2
Protocol: Male Buffalo rats (approximately 200g each), with transplanted subcutaneous Morris Hepatoma 7777 tumors on the exterior portion of the hind legs were injected intravenously via the exterior jugular with chlorin-e6 or Photofrin II, ^(2) at a dosage of 20mg/kg. Twenty four hours later, the areas over the tumors were shaved and the light treatment was begun.
Light from a Cooper Aurora argon pumped tunable dye laser was administered via a micro lens system (developed by Dr. Daniel Doiron, D.R.D. Consulting, Santa Barbara, California) coupled through a quartz fiber to the laser. The optical properties of the lens are such that the light exits the lens in a circular pattern with a homogenous intensity throughout the lighted area. The diameter of the lighted area is a function of its distance from the lens.
The light intensity was measured with a Yellow Springs Instrument Model 65A Radiometer at the point of treatment. […] Photofrin II rats were treated with 630 nanometer light in accordance with the preponderance of photodynamic therapy experiments described in the literature, using this drug, and its forerunner HPD or Photofrin I. The wavelengths of light were determined with the aid of a Hartridge reversion spectroscope to within one nanometer. […]
Nineteen tumors were evaluated for Chlorin e6 and light effect while twenty two tumors were assessed for Photofrin II and light effect.

[3] = system: Morris Hepatoma 7777; assay: Photodynamic therapy, depth of tumor necrosis by Evans Blue method (Example 6); type: in vivo, Buffalo rats; details: Tumor 7777; 20 Joules/cm^2; drug dose 20 mg/kg intravenously; 24 hrs between drug and light; 665 nm; 100 mW/cm^2; n=3
Protocol: The phtotdynamic therapy experiments have been carried out on Buffalo rats, using the transplantable tumor, Morris Hepatoma 7777. The tumors were transplanted subcutaneously on the outside of the thigh. During treatment, the tumors ranged in size between 1 and 2.5 cm in diameter.
The general treatment regime is as follows. The rats are injected with a solution of the chlorin prepared as follows: 20mg of the sodium salt of the chlorin was dissolved in 1 ml of 0.9% NaCl. The chlorin solution was then injected intravenously through the external jugular while the rat was anesthetized with ether. The volume of solution injected was calculated based upon the weight of the animal and the dosage, on a weight to weight basis, for the particular experiment. […]
The lens disperses the laser beam, providing a circular distribution of light with homogenous light intensity throughout the area of the incident light beam. […] The light intensity was determined using a Yellow Springs Instrument, Model 65A, radiometer. […]
Subsequent to illumination, the animal was returned to its cage and, 24 hours later, it was treated intravenously in the external jugular vein with 14 mg of Evans Blue dye, dissolved in 250 ul of 0.9% NaCl. […] The extent of tumor necrosis was assessed by the lack of dye uptake, and the depth of the necrotic cross section of the tumor was recorded in millimeters. […]

Row | Compound | X̄ ± s.d. (cm) [1] | range cm [1] | number of tumors developing necrosis following treatment [2] | Range mm: range of depth of necrosis within the group [3] | x̄ s.d.(n): mean depth of necrosis of the tumor tissue [3]
1 | CCC1=C(C)c2cc3[nH]c(cc4nc(c(CC(=O)O)c5[nH]c(cc1n2)c(C)c5C(=O)O)C(CCC(=O)O)C4C)c(C)c3C=O (stereo not shown) [2-formyl chlorin e6, 2-Desvinyl-2-FormylChlorin e6] | 0.33±0.12 cm | 0.20-0.45 cm |  |  | 
2 | C=Cc1c(C)c2cc3nc(c(CC(=O)O)c4[nH]c(cc5nc(cc1[nH]2)C(C)=C5CC)c(C)c4C(=O)O)[C@@H](CCC(=O)O)[C@@H]3C [Chlorin e6] | 0.26±0.05 cm | 0.20-0.35 cm | 17 | 3.5-5 mm | 4.5±0.9 (3) mm
3 | CCC1=C(C)c2cc3[nH]c(cc4nc(c(CC(=O)O)c5[nH]c(cc1n2)c(C)c5C(=O)O)C(CCC(=O)O)C4C)c(C)c3C(C)=O (stereo not shown) [2-acetyl chlorin e6] | 0.04±0.08 cm | 0.00-0.15 cm |  |  | 
4 | CCC1=C(C)c2cc3cc(C)c(cc4nc(c(CC(=O)O)c5[nH]c(cc1n2)c(C)c5C(=O)O)C(CCC(=O)O)C4C)[nH]3 (stereo not shown) [deuterochlorin e6, Deuterochlorin e6] | 0.59±0.07 cm | 0.50-0.70 cm |  |  | 
5 | CCC1=C(C)c2cc3[nH]c(cc4nc(c(CC(=O)O)c5[nH]c(cc1n2)c(C)c5C(=O)O)C(CCC(=O)O)C4C)c(C)c3CC (stereo not shown) [mesochlorin e6, Mesochlorin e6] | 0.06±0.08 cm | 0.00-0.15 cm |  |  | 
